Results from patent US20260159474A1, “Aminoindane Compounds and Compositions and Methods of Their Therapeutic Use” (Solvonis Therapeutics Ireland Holdings Limited, priority 2021, published 2026).

Target: T1, human P-glycoprotein transporter (MDCKII-MDR1 cells) (Homo sapiens, UniProt P08183)
T1 construct: expressed in transfected cells; host or cells: MDCKII-MDR1 (Madin-Darby Canine Kidney clone II)
Test: Bidirectional permeability and P-gp substrate assay in MDCKII-MDR1 cells
Assay type: in vitro ADME
Conditions: for Permeability classification: by Papp; for Papp A→B at 60 min: dog, MDCK, read-out: MDCKII Permeability app A > B; for P-gp Substrate?: efflux ratio >2 and reduced with GF120918 or in mock MDCKII cells
Protocol: Methods: A bidirectional permeability study was conducted to evaluate the apparent permeability (Papp) of therapeutic compounds. Additionally, the MDCKII-MDR1 cell line (Madin-Darby Canine Kidney clone II cell line heterologously expressing the human P-glycoprotein transporter) and mock cell line MDCKII were used to determine whether a compound acted as a P-gp substrate, in the absence and in the presence of a potent P-gp inhibitor. Test control items (digoxin, metoprolol, and atenolol) and control P-gp inhibitor (GF120918) stock solution were prepared in DMSO. Bidirectional assays (Apical to Basolateral [AB] and Basolateral to Apical [BA]) were run, in both the absence and presence of P-gp inhibitor GF120918 in MDCKII-MDR1 and mock cell line MDCKII, using as transport buffer HBSSH at a pH of 7.4 (n=3).
Compounds were tested at a single concentration (i.e. at […]) at one time point (i.e. 60 min). Alternative concentrations or time points may also be investigated. As reference compounds, digoxin (P-gp substrate), atenolol (low permeability) and metoprolol (high permeability) were included at a single concentration (e.g., 10 or […]) and at single time point (e.g., 60 min). Digoxin transport was evaluated in two directions (apical-to-basolateral [AB] and basolateral-to-apical [BA]) in the absence and presence of GF120918 or in mock cells, MDCKII (n=3). Atenolol and metoprolol were only tested in the AB direction in absence of P-gp inhibitor GF120918 or in mock cells, MDCKII (n=3). The integrity of the cell monolayer was evaluated after the permeability experiment using the paracellular permeability marker Lucifer yellow (LY) in the apical to basolateral direction in each well.
MDCKII or MDCKII-MDR1 cells were cultivated in DMEM (high glucose, GlutaMAXTM supplemented with pyruvate, 10% FBS HI and Pen/Strep). Cells were seeded onto microporous PET (Polyethylene Terephthalate) membranes in HTS 96-Multiwell Insert plates at a density of ˜175,000-245,000 cells/cm^2 (25000-35000 cells/well; 50 μL/well) in DMEM medium and incubated for 3-4 days at 37° C.-5% CO2. Medium was changed the day before the experiment.
Stock solutions of test items were prepared in DMSO at a concentration of 5 or 10 mM and stored at −20° C. until use. The potent P-gp inhibitor, GF120918 (stock solution 10 mM) and the reference controls digoxin, atenolol, metoprolol (stock solutions 3 or 10 mM) were prepared in DMSO and stored at −20° C. until use.
Donor working solutions of test items and reference controls were prepared at a concentration of 10 or 25 µM, diluting the stock solutions in HBSSH. Receiver working solutions contained transport buffer only. All working solutions were prepared such that the final concentration of DMSO was 1% (v/v). A donor working solution containing LY was also prepared in transport buffer at 100 µM.
MDCKII and MDCKII-MDR1 cells were preincubated (37° C., 15 to 30 minutes) in receiver working solutions containing transport buffer on apical (A) and basolateral (B) sides. Following pre-incubation, test items and control items (digoxin) transport were measured in two directions (apical to basolateral [AB]) and basolateral to apical [BA]), and these directions were performed in triplicate sets of wells, in both the absence and presence of […] GF120918 or mock MDCKII cells. For [AB] directional transport, 75 μL of donor working solution was added to the A (apical) compartment and 235 μL of receiver working solution was added to the B (basolateral) compartment. For [BA] directional transport, 235 μL donor working solution with test items or reference controls was added to the B compartment and 75 μL receiver working solution was added to the A compartment. Transport of permeability reference controls, atenolol and metoprolol, were measured in one direction (apical to basolateral [AB]) (n=3).
The cells were incubated (at 37° C., with shaking) for 60 minutes. […]

[1] = apical to basolateral, pH 7.4, 60 min

T1 sequence (P08183 whole entry): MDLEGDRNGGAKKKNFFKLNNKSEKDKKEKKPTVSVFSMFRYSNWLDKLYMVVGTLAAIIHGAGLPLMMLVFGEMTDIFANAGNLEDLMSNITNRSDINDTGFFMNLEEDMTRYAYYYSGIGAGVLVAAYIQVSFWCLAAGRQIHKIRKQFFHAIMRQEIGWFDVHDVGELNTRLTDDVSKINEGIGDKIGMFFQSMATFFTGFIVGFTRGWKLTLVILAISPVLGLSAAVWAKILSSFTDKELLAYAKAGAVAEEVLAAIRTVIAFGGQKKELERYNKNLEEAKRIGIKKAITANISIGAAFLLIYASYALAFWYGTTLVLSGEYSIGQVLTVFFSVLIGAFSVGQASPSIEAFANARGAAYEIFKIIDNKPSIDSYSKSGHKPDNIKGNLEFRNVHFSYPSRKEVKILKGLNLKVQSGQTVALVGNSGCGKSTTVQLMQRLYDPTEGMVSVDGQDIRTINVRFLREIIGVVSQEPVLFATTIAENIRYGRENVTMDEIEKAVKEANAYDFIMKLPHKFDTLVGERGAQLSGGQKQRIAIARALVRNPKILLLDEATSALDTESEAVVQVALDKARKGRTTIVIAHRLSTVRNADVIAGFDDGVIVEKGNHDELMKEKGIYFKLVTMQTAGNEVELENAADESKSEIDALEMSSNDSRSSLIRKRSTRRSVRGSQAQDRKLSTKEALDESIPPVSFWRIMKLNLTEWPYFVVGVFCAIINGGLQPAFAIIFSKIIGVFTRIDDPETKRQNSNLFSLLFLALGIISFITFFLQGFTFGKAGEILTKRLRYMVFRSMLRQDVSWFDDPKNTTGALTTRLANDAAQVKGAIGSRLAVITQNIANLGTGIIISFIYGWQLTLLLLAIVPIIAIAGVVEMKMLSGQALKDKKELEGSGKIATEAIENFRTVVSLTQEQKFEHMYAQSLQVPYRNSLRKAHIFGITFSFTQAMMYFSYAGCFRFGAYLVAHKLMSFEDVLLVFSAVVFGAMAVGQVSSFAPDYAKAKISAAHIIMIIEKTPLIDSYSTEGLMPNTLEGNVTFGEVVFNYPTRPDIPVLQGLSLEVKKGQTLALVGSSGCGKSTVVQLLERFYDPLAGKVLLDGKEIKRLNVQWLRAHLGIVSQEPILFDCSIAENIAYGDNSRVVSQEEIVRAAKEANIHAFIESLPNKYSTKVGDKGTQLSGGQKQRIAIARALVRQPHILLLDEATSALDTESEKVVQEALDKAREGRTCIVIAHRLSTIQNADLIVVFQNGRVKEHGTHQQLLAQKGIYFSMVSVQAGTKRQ

| Structure (SMILES) | Permeability classification | Papp A→B at 60 min [1] [×10⁻⁶ cm/s] | P-gp Substrate? | MDCKII Permeability app A > B [1] [×10⁻⁶ cm/s] | MDCKII-MDR1 B-A ratio (efflux ratio, MDCKII-MDR1 cells) |
| --- | --- | --- | --- | --- | --- |
| COC(=O)c1ccc2c(c1)CC(N)C2 (stereo not shown) [CMP-405, 2-aminoindane-5-methylcarboxylate] | highly permeable | 16.2 | No |  |  |
| CNC(C)Cc1ccc2c(c1)OCO2 (stereo not shown) [MDMA] | less permeable |  | No | 14 | 1.5 |
| COc1ccc2c(c1)CC(N)C2 (stereo not shown) [MEAI, 5-methoxy-2-aminoindane] | highly permeable | 17.4 | No |  |  |
